Results on 3 substances are retold here after patent US12551541B2, “Albumin bound macromolecule tri-agonist activating GLP 1/GIP/glucagon receptors and methods therefor” (AlbuNext, LLC, priority 2023, dated 2026).

For data set [1] the following is noted: 0.16 pmol/kg per minute; cited from earlier work.
For data set [2] the following is noted: in vivo; cited from earlier work.
For data set [3] the following is noted: monotherapy, cited from earlier work.
Data set [4] concerns the target GLP-1 receptor (Homo sapiens, UniProt P43220). The conditions noted are these: cited from earlier work.
Data set [5] deals with DIO (diet induced obesity) mice. The experiment in a line: DIO (diet induced obesity) mice, single subcutaneous injection, NASH. Type of data set: in vivo. The note with it: single dosage of 100 nmol/kg, over 26 days. The method, then:
In still further experiments to confirm that contemplated compounds presented herein are also effective as modulators for hepatic metabolism, and particularly in the treatment and even at least partial reversion of NASH (non-alcoholic […]), the inventors tested selected compounds in DIO (diet induced obesity) mice. […] The body weight of all treated animals was recorded over 26 days, and average body weight over time for 16 and 26 days are shown in FIG. 34A and FIG. 34B, respectively.
To investigate liver function and metabolism, liver weight was determined at the end of the study and results are shown in FIG. 38. […] In addition, liver function was assessed at the end of the study by testing AST (aspartate aminotransferase) and ALT (alanine transaminase).
In still further tests for hepatic metabolic modulation, the inventors also determined total cholesterol and LDL cholesterol at the end of the study, and exemplary results are shown in FIG. 41 (for total cholesterol) and FIG. 42 (for LDL cholesterol). […] As diet induced obesity is also often associated with inflammation, the inventors also measured levels of selected pro-inflammatory cytokines. Here, IL-1α and IL-6 levels were determined at the end of the study.

Chain of GLP-1 receptor (P43220 24-463, species assumed): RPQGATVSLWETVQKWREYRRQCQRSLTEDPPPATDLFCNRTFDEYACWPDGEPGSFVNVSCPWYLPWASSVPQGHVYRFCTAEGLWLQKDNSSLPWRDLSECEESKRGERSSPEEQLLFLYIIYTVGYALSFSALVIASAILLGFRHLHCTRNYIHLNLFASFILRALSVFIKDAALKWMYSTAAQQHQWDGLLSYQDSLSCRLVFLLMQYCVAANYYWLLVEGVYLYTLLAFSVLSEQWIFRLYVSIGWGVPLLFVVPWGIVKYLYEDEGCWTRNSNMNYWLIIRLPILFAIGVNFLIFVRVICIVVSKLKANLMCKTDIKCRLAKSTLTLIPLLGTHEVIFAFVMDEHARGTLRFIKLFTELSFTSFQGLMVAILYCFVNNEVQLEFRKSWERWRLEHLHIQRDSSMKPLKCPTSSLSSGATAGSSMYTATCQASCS

For the substance “GLP-1: naturally occurring hormone released by L cells in the lower intestine”, the adverse events result in data set [1] is reported as “vomiting within eight minutes”.
On to albiglutide, for which the half-life in data set [2] was 140 to 190 h. For the same substance, the “decrease in HbA1c from baseline” value in data set [3] (30 mg weekly dose, week 52) is listed as −0.7%. Also, in data set [3] (50 mg weekly dose), the “change from baseline of HbA1c” value was −0.9%. Also, the GLP-1 receptor affinity in data set [4] is 20 nM.
With semaglutide [reference compound], the body weight entry in data set [5] is “effective in reduction of body weight”.

In general, half-life refers to the time in which the quantity being followed falls by half.
